Where two headings read alike, the source gives them in different places.

In series [1] the target is T1, OCT1 (Homo sapiens, UniProt O15245).
T1 sequence (O15245 1-554): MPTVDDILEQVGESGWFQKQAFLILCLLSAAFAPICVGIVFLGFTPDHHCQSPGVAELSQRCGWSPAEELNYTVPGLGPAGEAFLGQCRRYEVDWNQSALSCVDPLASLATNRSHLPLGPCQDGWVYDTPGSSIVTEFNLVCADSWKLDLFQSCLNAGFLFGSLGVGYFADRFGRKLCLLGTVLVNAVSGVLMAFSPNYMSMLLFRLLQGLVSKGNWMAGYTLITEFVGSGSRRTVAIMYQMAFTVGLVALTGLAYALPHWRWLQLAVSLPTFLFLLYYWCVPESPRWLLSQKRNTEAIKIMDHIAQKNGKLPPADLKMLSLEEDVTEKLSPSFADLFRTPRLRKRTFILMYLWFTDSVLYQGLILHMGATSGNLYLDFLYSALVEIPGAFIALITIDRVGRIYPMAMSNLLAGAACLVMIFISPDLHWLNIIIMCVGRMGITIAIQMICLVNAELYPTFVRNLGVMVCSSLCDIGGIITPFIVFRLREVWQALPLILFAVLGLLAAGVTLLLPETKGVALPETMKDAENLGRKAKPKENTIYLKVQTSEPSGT
Conditions: cited from earlier work.

For series [2], the target named is T1, OCT1. Kind of series: Concentration-dependent uptake of model substrates, OCT1-overexpressing HEK293 cells. The format is in vitro ADME. Also noted: expressed in transfected cells; host or cells: HEK293. Conditions: this study; for Clint ± SEM: vmax over Km. On the procedure: (§1) Koepsell and Gorbulev (University of Würzburg, Germany).
(§2) Prior to inhibition studies, the used model substrates were validated in concentration-dependent uptake experiments if no literature data were available (Table S2 and Figures S2 and S3). Thereby, we ensured that the model substrate concentration used in the subsequent inhibition experiments was sufficiently below the Km value of its uptake kinetics. […] On the day of the experiment, the cells were washed once with prewarmed to 37 °C HBSS (Thermo Fisher Scientific, Darmstadt, Germany) supplemented with 10 mM HEPES and pH adjusted to 7.4 (Sigma-Aldrich)—hereafter termed HBSS+. For concentration-dependent experiments, the cells were incubated with increasing substrate concentrations for 2 min. Uptake was terminated by adding ice-cold HBSS+. Afterward, the cells were washed twice with ice-cold HBSS+, and cell lysis was done with 80% (v/v) acetonitrile (LGC Standards, Wesel, Germany) to which an internal standard for eventual LC–MS/MS analysis had been added. Intracellularly accumulated substrates were then quantified by LC–MS/MS analysis, and calibration was performed with known concentrations of the respective substances. All uptake data were normalized to the number of seeded cells by measuring the total protein content in radioimmunoprecipitation assay buffer-lysed cells in a bicinchoninic acid assay.[29]

In series [3] the target is T2, OCT2 (Homo sapiens, UniProt O15244).
T2 sequence (O15244 1-555): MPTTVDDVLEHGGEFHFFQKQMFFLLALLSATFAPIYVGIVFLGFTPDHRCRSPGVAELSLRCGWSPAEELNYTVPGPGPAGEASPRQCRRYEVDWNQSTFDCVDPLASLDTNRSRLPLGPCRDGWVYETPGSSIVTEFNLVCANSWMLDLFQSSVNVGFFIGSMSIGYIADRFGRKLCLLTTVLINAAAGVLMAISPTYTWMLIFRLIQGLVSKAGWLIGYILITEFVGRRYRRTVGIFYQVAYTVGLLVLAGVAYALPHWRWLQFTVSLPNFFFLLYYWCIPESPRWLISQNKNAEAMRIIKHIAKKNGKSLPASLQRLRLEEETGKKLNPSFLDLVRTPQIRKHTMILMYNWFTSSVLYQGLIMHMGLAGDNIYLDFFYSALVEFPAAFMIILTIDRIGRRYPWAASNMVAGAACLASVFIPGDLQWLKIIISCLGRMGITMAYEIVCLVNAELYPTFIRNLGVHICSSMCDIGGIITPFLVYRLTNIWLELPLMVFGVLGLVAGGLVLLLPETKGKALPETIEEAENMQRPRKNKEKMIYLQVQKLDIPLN
Kind of series: Concentration-dependent uptake of model substrates, OCT2-overexpressing HEK293 cells. The format is in vitro ADME. Set-up: expressed in transfected cells; host or cells: HEK293. Conditions: this study; for Clint ± SEM: vmax over Km; for Km: read-out: Km ± SEM. The procedure: as §1, §2

The target in series [4] is T1, OCT1. Kind of series: Inhibition of model substrate uptake in OCT1-overexpressing HEK293 cells. The conditions noted are these: OCT1, 20 μM inhibitor, 5 min. The format is cell-based. Set-up: expressed in transfected cells; host or cells: HEK293. On the procedure: as §1
Fluorescence quantification was performed in technical duplicates.

The target in series [5] is T2, OCT2. Kind of series: Inhibition of model substrate uptake in OCT2-overexpressing HEK293 cells. The conditions noted are these: OCT2, 20 μM inhibitor, 5 min.
The target in series [6] is T3, OCT3 (Homo sapiens, UniProt O75751).
T3 construct: expressed in transfected cells; host or cells: HEK293
T3 sequence (O75751 1-556): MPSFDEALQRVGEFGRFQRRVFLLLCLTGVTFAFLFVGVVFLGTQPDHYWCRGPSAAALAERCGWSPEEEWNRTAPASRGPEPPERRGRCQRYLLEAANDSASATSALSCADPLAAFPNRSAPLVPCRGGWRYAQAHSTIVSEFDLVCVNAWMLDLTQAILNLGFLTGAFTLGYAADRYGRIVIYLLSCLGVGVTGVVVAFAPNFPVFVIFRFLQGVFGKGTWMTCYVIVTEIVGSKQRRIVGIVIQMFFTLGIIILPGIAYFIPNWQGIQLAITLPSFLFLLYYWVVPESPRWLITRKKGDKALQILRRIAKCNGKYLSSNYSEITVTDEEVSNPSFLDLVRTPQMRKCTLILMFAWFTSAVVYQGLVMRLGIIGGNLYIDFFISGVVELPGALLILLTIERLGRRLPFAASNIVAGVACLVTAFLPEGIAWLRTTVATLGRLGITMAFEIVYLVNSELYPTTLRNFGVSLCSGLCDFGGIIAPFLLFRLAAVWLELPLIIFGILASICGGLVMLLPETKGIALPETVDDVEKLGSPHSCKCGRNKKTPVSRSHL
Kind of series: Inhibition of model substrate uptake in OCT3-overexpressing HEK293 cells. The format is cell-based. The conditions noted are these: OCT3, 20 μM inhibitor, 5 min. An outline of the steps:
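Transporter-overexpressing HEK293 cells were incubated 5 min in HBSS+ with 2 μM model substrate, with or without 20 μM inhibitor or increasing inhibitor concentrations. Uptake was read as ASP^+ fluorescence or by LC–MS/MS, with empty-vector uptake subtracted. IC50 came from a Hill fit of activity versus log concentration.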

The target of series [7] is T3, OCT3. Kind of series: Concentration-dependent uptake of model substrates, OCT3-overexpressing HEK293 cells. The format is in vitro ADME. Conditions: this study; for Clint ± SEM: vmax over Km. The procedure: as §1, §2
Series [8] has as its target T3, OCT3. Set-up: method as in earlier work. Conditions: ref 3 (Gebauer et al., 2022, supplement), cited from earlier work.
Substrate in the series “not read”: CCC(CO)NCCNC(CC)CO
Kind of series: not read.

[9] abbreviates: ref 2 (Matthaei et al., 2016, supplement).

As for `CC(Cc1ccc(O)cc1)NCC(O)c1cc(O)cc(O)c1` (racemic) [rac Fenoterol, Fenoterol], the “Clint ± SEM” value on OCT1 [1] (ref 1 (Tzvetkov et al., 2018, supplement)) is 33.0.
In the case of `CCC(CO)NCCNC(CC)CO` [(S,S)-Ethambutol], the “Clint ± SEM” value on OCT1 [2] is listed as 14.1; on OCT2 [3] it was 36.6; on OCT3 [7], 16.9. Moreover, the “ASP+ inhibition [%]” value on OCT1 [4] (2 μM ASP+, mean of three experiments) amounted to 5.5%; at OCT2 [5] (2 μM ASP+), 38.8%; at OCT3 [6] (2 μM ASP+), 3.7%. For the same molecule, the “Sumatriptan inhibition [%]” value on OCT1 [4] (2 μM sumatriptan) came out at 17.8%. For the same molecule, the “N-Ethyllidocaine inhibition [%]” value on OCT2 [5] (2 μM N-ethyllidocaine) was 10.0%. Also, the “(S)-Zolmitriptan inhibition [%]” value at OCT3 [6] (2 μM (S)-zolmitriptan) is reported as -1.3%.
As a reminder, the Km is the concentration of substrate that gives half-maximal velocity. As for `CN(C)c1ccc(C=Cc2cc[n+](C)cc2)cc1` [ASP+, 4-(4-(dimethylamino)styryl)-N-methylpyridinium], the Km at OCT1 [2] (2 min uptake, read-out: Km ± SEM) came to 11.7 µM; at OCT2 [3], 29.6 µM; on OCT3 [7] (read-out: Km ± SEM), 16.5 µM. The figures for the “vmax ± SEM [pmol × mg Protein−1 × min−1]” value at OCT1 [2], on OCT2 [3] and on OCT3 [7] were 2678 pmol × mg Protein−1 × min−1, 1812 pmol × mg Protein−1 × min−1 and 3381 pmol × mg Protein−1 × min−1, respectively. Further, the results for the “Clint ± SEM” value at OCT1 [2], at OCT2 [3] and on OCT3 [7] were 230, 61.3 and 205, respectively.
Take `CC[N+](CC)(CC)CC(=O)Nc1c(C)cccc1C` [N-Ethyllidocaine]: on OCT3 [8] (read-out: Km ± SEM), the Km is 46.3 µM. Moreover, on OCT3 [8], the “Clint ± SEM” value is 8.80 and the “vmax ± SEM [pmol × mg Protein−1 × min−1]” value is 407 pmol × mg Protein−1 × min−1. Also, on OCT2 [3], the “vmax ± SEM [pmol × mg Protein−1 × min−1]” value is 5172 pmol × mg Protein−1 × min−1, the Michaelis-Menten constant (Km) came out at 87.7 µM and the “Clint ± SEM” value was 58.9.
As to `CNS(=O)(=O)Cc1ccc2[nH]cc(CCN(C)C)c2c1` [Sumatriptan], on OCT1 [1] (read-out: Km ± SEM, ref 2 (Matthaei et al., 2016, supplement)), the Michaelis constant (Km) is 55.4 µM. On OCT1 [1] (setting [9]), the “Clint ± SEM” value was 17.6 and the “vmax ± SEM [pmol × mg Protein−1 × min−1]” value was 978 pmol × mg Protein−1 × min−1.

B1: OCT2 (Homo sapiens) (protein)
chain: MPTTVDDVLEHGGEFHFFQKQMFFLLALLSATFAPIYVGIVFLGFTPDHRCRSPGVAELSLRCGWSPAEELNYTVPGPGPAGEASPRQCRRYEVDWNQSTFDCVDPLASLDTNRSRLPLGPCRDGWVYETPGSSIVTEFNLVCANSWMLDLFQSSVNVGFFIGSMSIGYIADRFGRKLCLLTTVLINAAAGVLMAISPTYTWMLIFRLIQGLVSKAGWLIGYILITEFVGRRYRRTVGIFYQVAYTVGLLVLAGVAYALPHWRWLQFTVSLPNFFFLLYYWCIPESPRWLISQNKNAEAMRIIKHIAKKNGKSLPASLQRLRLEEETGKKLNPSFLDLVRTPQIRKHTMILMYNWFTSSVLYQGLIMHMGLAGDNIYLDFFYSALVEFPAAFMIILTIDRIGRRYPWAASNMVAGAACLASVFIPGDLQWLKIIISCLGRMGITMAYEIVCLVNAELYPTFIRNLGVHICSSMCDIGGIITPFLVYRLTNIWLELPLMVFGVLGLVAGGLVLLLPETKGKALPETIEEAENMQRPRKNKEKMIYLQVQKLDIPLN
One may read the Vmax as the top rate of the reaction or transport when substrate is in excess. Regarding B1, in “not read” (other: OCT2, this study), the Michaelis constant (Km) came to 163 µM and the Vmax was determined as 0.00597 µmol/min/mg.

B2: OCT3 (Homo sapiens) (protein)
chain: MPSFDEALQRVGEFGRFQRRVFLLLCLTGVTFAFLFVGVVFLGTQPDHYWCRGPSAAALAERCGWSPEEEWNRTAPASRGPEPPERRGRCQRYLLEAANDSASATSALSCADPLAAFPNRSAPLVPCRGGWRYAQAHSTIVSEFDLVCVNAWMLDLTQAILNLGFLTGAFTLGYAADRYGRIVIYLLSCLGVGVTGVVVAFAPNFPVFVIFRFLQGVFGKGTWMTCYVIVTEIVGSKQRRIVGIVIQMFFTLGIIILPGIAYFIPNWQGIQLAITLPSFLFLLYYWVVPESPRWLITRKKGDKALQILRRIAKCNGKYLSSNYSEITVTDEEVSNPSFLDLVRTPQMRKCTLILMFAWFTSAVVYQGLVMRLGIIGGNLYIDFFISGVVELPGALLILLTIERLGRRLPFAASNIVAGVACLVTAFLPEGIAWLRTTVATLGRLGITMAFEIVYLVNSELYPTTLRNFGVSLCSGLCDFGGIIAPFLLFRLAAVWLELPLIIFGILASICGGLVMLLPETKGIALPETVDDVEKLGSPHSCKCGRNKKTPVSRSHL
With B2, in the series “not read” (other: OCT3, this study), the Michaelis-Menten constant (Km) was determined as 146 µM and the Vmax was 0.00246 µmol/min/mg.
